Results as given in publication PMC12091851, “Replacing a Cereblon Ligand by a DDB1 and CUL4 Associated Factor 11 (DCAF11) Recruiter Converts a Selective Histone Deacetylase 6 PROTAC into a Pan‐Degrader” (Chemmedchem, 2025).

Target: HDAC1 (Homo sapiens, UniProt Q13547)
Assay: Simple Western immunoassay, HDAC1 levels in U-87MG cell lysates
Type: cell-based
Set-up: endogenous in cells; host or cells: MM.1S
Details: 10 μM, 24 h
Description: Figure S5. Analysis of HDAC1 and 6 degradation in U-87MG cells. Simple western immunoassay analysis of U-87MG cell lysates. The cells were treated with the indicated compound (10 µM) or vehicle (DMSO) for 24 h. Top: Quantification of HDAC levels, presented as mean ± standard deviation of n = 2 biological replicates; Significance compared to vehicle: ns = p≥0.05 and *** = p≤0.001. Bottom:
Representative images of n = 2 biological replicates.
(1 picture or pasted object on this page, not shown here)
2. Biological Experiments
No unexpected or unusually high safety hazards were encountered.
The human multiple myeloma cell line MM.1S (CRL-2974) was obtained from American Type Culture Collection (ATCC, Manassas, VA, USA). […]
Louis, MO, USA) according to manufacturer´s instructions. Protein content was determined by Pierce™ BCA Protein Assay Kit (Catalog# 23225, Thermo Fisher Scientific Inc.) according to manufacturer´s guidelines. […]
Fluorescence Separation 8x25 Capillary Cartridges (Catalog# SM-FL004-1, Protein Simple, Bio-Techne, Minneapolis, MN, USA) were used for separation and the Anti-Mouse Detection Module (Catalog# DM-002, Protein Simple) was used for detection with addition of 20x Anti-Rabbit HRP […]
Conjugate (Catalog# 043-426, Protein Simple) according to manufacturer´s instructions. […] Evaluation and quantification was performed with the compass software (6.2.0, Protein Simple). […]

Sequence of HDAC1 (Q13547 whole entry): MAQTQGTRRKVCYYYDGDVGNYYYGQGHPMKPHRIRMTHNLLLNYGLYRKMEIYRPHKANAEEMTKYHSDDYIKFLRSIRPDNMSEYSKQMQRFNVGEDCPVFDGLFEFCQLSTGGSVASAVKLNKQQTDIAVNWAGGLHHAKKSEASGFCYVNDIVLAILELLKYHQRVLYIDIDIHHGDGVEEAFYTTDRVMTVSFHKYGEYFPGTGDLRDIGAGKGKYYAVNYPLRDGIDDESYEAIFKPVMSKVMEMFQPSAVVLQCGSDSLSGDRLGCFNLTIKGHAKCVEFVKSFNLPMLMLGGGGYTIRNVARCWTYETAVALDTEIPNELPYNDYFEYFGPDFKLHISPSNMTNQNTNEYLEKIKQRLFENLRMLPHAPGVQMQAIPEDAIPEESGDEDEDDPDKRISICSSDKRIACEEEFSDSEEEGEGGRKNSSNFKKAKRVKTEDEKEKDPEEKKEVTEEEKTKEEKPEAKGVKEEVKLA

| HDAC1 degradation in U-87MG cells | SMILES |
| --- | --- |
| significant HDAC1 and 6 degradation | O=C(CCCCCCNC(=O)c1ccc(NC(=O)CCCCCCCCCCCN(C(=O)CCl)C(C(=O)NCc2ccccc2)c2ccc(Cl)c(Cl)c2)cc1)NO (centres unmarked) [Compound 1j] |
| significant degradation for HDAC1 | O=C(CCCCCCNC(=O)c1ccc(N(C(=O)CCl)C(C(=O)NCc2ccccc2)c2ccc(Cl)c(Cl)c2)cc1)NO (centres unmarked) [Compound 2] |
